What all share (assay type): physicochemical
A short description of data set [1]: Experiment A: ozone chamber exposure of β-ionone on a surface, headspace SPME-GCMS. The note with it: 1 hour exposure. The protocol:
A β-ionone solution (10 % w/w in ethanol) was applied to a surface (20 microlitres) and was allowed to dry for one hour in a fume cupboard. The surface was then placed at the base of the ozone chamber. The ozone generator plug-in was turned on for the required time at regular intervals to achieve the desired ozone concentration inside the chamber (either 250 ppb or 350 ppb). After exposure of a surface to ozone for the desired time of 1 hour the surface was removed from the chamber and placed in a capped PVC container. The surface was left in the PVC container for 10 min and then an additional 20 min with an SPME fibre exposed to the head-space environment of the container. The headspace was measured by SPME-GCMS and the ratios of β-cyclocitral to β-ionone determined as follows: […]

Data set [2] in a line: Experiment B: ozone chamber exposure at 100 ppb over time, headspace SPME-GCMS. The note with it: 100 ppb ozone. As for the experimental part: A β-ionone solution (10 % w/w in ethanol) was applied to a surface (20 microlitres) and was allowed to dry for one hour in a fume cupboard. The surface was then placed at the base of the ozone chamber. The ozone generator plug-in was turned on for the required time at regular intervals to achieve the desired ozone concentration inside the chamber (either 250 ppb or 350 ppb). After exposure of a surface to ozone for the desired time of 1 hour the surface was removed from the chamber and placed in a capped PVC container. The surface was left in the PVC container for 10 min and then an additional 20 min with an SPME fibre exposed to the head-space environment of the container. The headspace was measured by SPME-GCMS and the ratios of β-cyclocitral to β-ionone determined as follows:
This experiment was run like Experiment A, except that the ozone level used was 100 ppb and after 1,2,3,4 and 5 hours measurements of headspace were made and the ratios of β-cyclocitral / β-ionone were calculated from headspace concentration.

Data set [3] in a line: Example 3: exposure of β-ionone on filter paper in ozone-free glovebox, GC-MS of headspace and extract. The note with it: ozone below detection limit, 1 hour exposure. The protocol:
A 0.3% solution of β-ionone in ethanol and a 0.3% solution of β-cyclocitral were prepared. 1 ml of the β-ionone was placed on a piece of filter paper (cellulose, 75 mm dia.) and left for 2 minutes for the ethanol to evaporate. The filter paper was then placed in a glovebox containing an ozone "scrubber" and an ozone monitor (Aeroqual series 200 fitted with a 0 to 0.5 ppm sensor). Throughout the experiment the ozone level inside the glovebox was below the detection limit of the monitor. The ozone scrubber comprised an air pump (Interpet AirVolution AV4), pumping air at a rate of 600 l/hr through 0.75 g/l sodium thiosulphate solution.
After 1 hour exposure the filter paper was sealed in a 500 ml glass jar that had been adapted such that a SPME fibre could be introduced via a septum in the lid. The headspace above the sample was analysed using a Carboxen/DVB/PDMS SPME fibre using a 30 minute exposure. The fibre was then analysed by GC-MS. The filter paper was then removed, placed in a 28 ml glass vial and 3 ml of ethanol added. The vial was rollered for two hours after which the free ethanol was removed and analysed by GC-MS. The β-cyclocitral in ethanol solution was also analysed to indicate the appropriate retention time. […]

In the case of `CC(=O)/C=C/C1=C(C)CCCC1(C)C` [β-ionone], the figures for the “ratio of β-cyclocitral to β-ionone” value in data set [1] (250 ppb ozone) and in data set [1] (350 ppb ozone) were 0.72 and 2.67, respectively. Also, the “ratio of β-cyclocitral / β-ionone” value worked out at 0.43 in data set [2] (1 hour); 0.95 in data set [2] (2 hour); 1.87 in data set [2] (3 hour); 7.00 in data set [2] (4 hour); 11.00 in data set [2] (5 hour). The “β-cyclocitral detected in the headspace” value in data set [3] (SPME GC-MS of headspace) is “No β-cyclocitral was detected”. Moreover, the “β-cyclocitral detected on the filter paper” value in data set [3] (ethanol extract of filter paper, GC-MS) is reported as “No β-cyclocitral was detected”.

These data come from patent publication EP3440167B2, “FRAGRANCED COMPOSITIONS AND THEIR USE” (Unilever IP Holdings B.V., priority 2016, dated 2017).
